In US10471118B2, “Retinylamine derivitives for treatment of ocular disorders” (CASE WESTERN RESERVE UNIVERSITY, priority 2014, dated 2019):
Entries after “also recorded” stand apart in the source; their conditions may differ.

Assays:
[1] = system: Caco-2 cells; experiment: Caco-2 cell monolayer transport; assay type: in vitro ADME, human; settings: 500 μM apical, PBS pH 6, within 24 h, compared with Ret-NH2
Method: 1. Coating and preparing culture inserts for seeding: Rat tail collagen was diluted 1:9 with 0.5% acetic acid. The resulting solution (200 ul) was added to each insert to coat the surface. The inserts were air-dried overnight, followed by a UV irradiation for 45 min to sterilize the inserts. 2. Seeding cells onto an insert: A concentration of 4×10^5 cells/well EMEM solution containing 20% FBS was added to the precoated insert. Another 2 ml of fresh EMEM media was added to the other side (bottom). The media was changed after 1 day of incubation and every other day after that. The cells were cultured for 21 days until they were mature. 3. Transport experiment: The media was aspirated out. The cell monolayers were washed with PBS three times. Cells were further incubated with PBS for 1 h under 37° C. to allow them to release all the materials that may be taken up during incubation. PBS solution was removed and the prodrug solution (500 μM in 2.0 ml PBS (pH=6) solution) was loaded to the apical side. The basolateral side was loaded with 2.5 ml fresh PBS solution. The plates were incubated under 37° C. Samples of 200 μl were withdrawn from the basolateral side at several time points within 24 h. The drug release amount was determined by UV spectrometer.

[2] = biological target: RPE65 (Bos taurus, UniProt Q28175); experiment: Retinoid isomerase activity in RPE microsomes (11-cis-retinol production); assay type: biochemical, Bovine; settings: 0.5 to 10 μM compound, 10 μM all-trans-retinol, 1 h
Chain of RPE65 (Q28175 whole entry): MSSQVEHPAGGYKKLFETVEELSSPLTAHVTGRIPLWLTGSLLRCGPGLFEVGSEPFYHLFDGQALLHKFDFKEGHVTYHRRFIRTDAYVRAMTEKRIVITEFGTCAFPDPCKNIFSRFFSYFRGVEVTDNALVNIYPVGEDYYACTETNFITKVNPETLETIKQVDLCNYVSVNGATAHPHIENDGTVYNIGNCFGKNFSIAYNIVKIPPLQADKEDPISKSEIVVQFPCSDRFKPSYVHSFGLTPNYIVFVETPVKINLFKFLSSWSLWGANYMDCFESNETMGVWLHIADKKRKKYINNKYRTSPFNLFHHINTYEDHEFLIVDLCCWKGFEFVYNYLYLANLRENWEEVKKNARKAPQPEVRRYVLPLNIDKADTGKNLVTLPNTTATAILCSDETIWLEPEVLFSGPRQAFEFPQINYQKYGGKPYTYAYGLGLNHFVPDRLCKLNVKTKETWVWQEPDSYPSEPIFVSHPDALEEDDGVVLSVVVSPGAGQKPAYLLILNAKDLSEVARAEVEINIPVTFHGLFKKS
Method: To destroy endogenous retinoids, 200-μl aliquots of RPE microsomes placed in a quartz cuvette were irradiated for 5 min at 0° C. with a ChromatoUVE transilluminator (model TM-15; UVP).
All assays were performed under dim red light. 2 μl of the synthesized retinylamine derivatives (RF and RVG) (DMF, 0.5-10 mM) was added into 10 mM Bis-Tris propane buffer (pH 7.4) containing 150 μg RPE microsomes, 1% BSA, 1 mM disodium pyrophosphate and 20 μM apo Retinaldehyde-binding protein 1 (CRALBP). The resulting mixture was pre-incubated at room temperature for 5 min. Then 1 μl all-trans-retinol (DMF, 20 mM) was added. The resulting mixture was incubated at 37° C. for 1 h. Reaction was quenched by addition of 300 μl methanol, and the products were extracted with 300 μl hexanes. Production of 11-cis-retinol was quantified by normal phase HPLC with 10% (v/v) ethyl acetate in hexanes as eluent. Flow rate was 1.4 ml·min^−1 Retinoids were detected by monitoring absorbance at 325 nm and quantified base on a standard curve reflecting relation between amount of 11-cis-retinol and area under the corresponding chromatography peak.

[3] = system: Abca4^−/−Rdh8^−/− mice; experiment: Light-induced retinal degeneration in Abca4-/-Rdh8-/- mice (OCT, ERG, histology), Example 1; assay type: in vivo, mouse; settings: for protection against light-induced retinal degeneration (ONL thickness from OCT): 0.875 μmol per mouse oral gavage 16 h before 10,000 lux 1 h, OCT after 3 days in dark
Method: Abca4^−/−Rdh8^−/− double knockout mice were housed in the animal facility at the School of Medicine, Case Western Reserve University, where they were maintained under either complete darkness or a 12-h light (−10 1×) and 12-h dark cycle. All retinylamine tested were dissolved or suspended in 100 μl of vegetable oil with less than 10% (v/v) DMSO and were administered by oral gavage with a 22-gauge feeding needle. Experimental manipulations in the dark were done under dim red light transmitted through a Kodak No. 1 safelight filter (transmittance >560 nm). All animal procedures and experiments were approved by the Case Western Reserve University Animal Care Committees and conformed to recommendations of the American Veterinary Medical Association Panel on Euthanasia and the Association of Research for Vision and Ophthalmology.
After dark adaptation for 48 h, one or two Abca4^−/−Rdh8^−/− mice with pupils dilated by 1% tropicamide were exposed to fluorescent light (10,000 1×; 150-W spiral lamp, Commercial Electric) for 60 min in a white plastic bucket (Papersmith) with food and water and then kept in the dark. Histological and biochemical experiments were performed 3 days after exposure.
Ultra-high resolution spectral-domain OCT (SD-OCT; Bioptigen) and Heidelberg Retinal Angiograph II SLO (Heidelberg Engineering) were used for in vivo imaging of mouse retinas. Mice were anesthetized by intraperitoneal injection of a cocktail (20 μl g-1 body weight) containing ketamine (6 mg ml-1) and xylazine (0.44 mg ml-1) in 10 mM sodium phosphate, pH 7.2, and 100 mM NaCl. Pupils were dilated with 1% tropicamide. Four pictures acquired in the B-scan mode were used to construct each final averaged SD-OCT image.
All ERG procedures were performed by published methods. For single-flash recording, the duration of white-light flash stimuli (from 20 μs to 1 ms) was adjusted to provide a range of illumination intensities (from −3.7 to 1.6 log cd s m-2). Three to five recordings were made at sufficient intervals between flash stimuli (from 3 s to 1 min) to allow recovery from any photobleaching effects.
Mouse eyes were fixed for 24 h by rocking in a fixation solution (2 ml/eye) containing 4% paraformaldehyde and 1% glutaraldehyde in PBS. The tissue was processed through a series of ethanols, xylenes, and paraffins in a Tissue-Tek VIP automatic processor (Sakura, Torrance, Calif., USA), and 5-μm sections were cut using a Microm HM355 paraffin microtome (Thermo Fisher Scientific, Waltham, Mass., USA) and stained with hematoxylin and eosin (H&E) stain. Images of stained sections were captured by a Leica CTR6000 microscope attached to a CCD camera (Micropublisher 5.0 RTV, Qimaging Surray BC, Canada).
The effectiveness of the retinylamine derivatives on preventing light-induced retinal degeneration was tested in four-week old Abca4^−/−Rdh8^−/− mice according to the experimental scheme depicted in FIG. 1. After the mice were dark-adapted for 48 h, the drugs were gavaged at a dose 0.875 μmol/per mouse, which was selected based on the half protection dose for retinylamine after a dosing experiment, FIG. 2. Retinylamine was tested as a control at the same dose. […] Retinal integrity was assessed using optical coherence tomography (OCT). […] The mice without any treatment had photoreceptor cells completely destroyed after light illumination, and were used as a negative control. The retinal integrity was determined based on the thickness of outer nuclear layer (ONL) of the retinas measured from the OCT images. Reduced ONL thickness signifies the decreasing number of photoreceptors and retinal degeneration.

[4] = Storage stability of RVG and Ret-NH2; assay type: physicochemical
Source text: The synthesis was straightforward, and Ret-NH2 reacted with fluorenylmethyloxycarbonyl (Fmoc) protected amino acids or peptides in the presence of coupling agents. The Fmoc group then was removed using 20% piperidine in […] solution to give target molecules. The retinylamine derivatives were characterized by ^1H-NMR, ^13C-NMR and mass spectroscopy. The retinylamine derivatives had the purity over 95% as determined by HPLC except 3m Ret-Gly-Gly (RGG) with the purity of 90% (see SI). We tested the stability of RVG. Less than 5% degradation was observed when RVG was stored in the desiccator under vacuum at r.t. for 2 months, while 95% of Ret-NH2 decomposed under the same condition within 1 week.

Row | Compound | transport through the Caco-2 monolayer [1] | inhibition of RPE65 on 11-cis-retinol production [2] | protection against light-induced retinal degeneration (ONL thickness from OCT) [3] | protection against light-induced retinal degeneration (ONL thickness from OCT) ([3]; listed as phenylalanyl) | decomposed on storage ([4]; desiccator under vacuum at r.t., within 1 week) [%] | degradation on storage ([4]; stored in the desiccator under vacuum at r.t. for 2 months) | average scotopic a wave ERG peak amplitudes ([3]; 0.875 μmol per mouse 16 h prior to light illumination, evaluated 7 days later) | retina structure by histology (H&E) ([3]; treated before intense light exposure, 7 days after light exposure)
1 | CC1=C(/C=C/C(C)=C/C=C/C(C)=C/CNC(=O)[C@@H](N)Cc2ccccc2)C(C)(C)CCC1 [RF, (S)-2-amino-N-((2E,4E,6E,8E)-3,7-dimethyl-9-(2,6,6-trimethylcyclohex-1-en-1-yl)nona-2,4,6,8-tetraen-1-yl)-3-phenylpropanamide] | significantly higher transport through the Caco-2 monolayer | partial inhibition, but not in a concentration dependent manner | low protecting effect | little protecting efficacy |  |  |  | 
2 | CC1=C(/C=C/C(C)=C/C=C/C(C)=C/CN)C(C)(C)CCC1 [Ret-NH2, (2E,4E,6E,8E)-3,7-dimethyl-9-(2,6,6-trimethylcyclohex-1-en-1-yl)nona-2,4,6,8-tetraen-1-amine] |  | concentration dependent inhibition of RPE65 |  |  | 95 |  |  | 
3 | CC1=C(/C=C/C(C)=C/C=C/C(C)=C/CNC(=O)[C@@H](NC(=O)CN)C(C)C)C(C)(C)CCC1 [RVG, (S)-2-(2-aminoacetamido)-N-((2E,4E,6E,8E)-3,7-dimethyl-9-(2,6,6-trimethylcyclohex-1-en-1-yl)nona-2,4,6,8-tetraen-1-yl)-3-methylbutanamide] | significantly higher transport through the Caco-2 monolayer | did not show significant inhibition | significant improvement on preventing light-induced retinopathy over retinyl amine |  |  | Less than 5% | virtually the same as those without light-illumination (NLI) | maintained intact retina structure; also recorded: protected Abca4^−/−Rdh8^−/− retina from light damage
